The NIST ThermoML archive (doi:10.1021/je049579x)
“And” between values parts separate entries of the source, which are not always exact repeats. Equal values may be shown once.

Settings: Crystal, Torsion effusion method

[Br][Yb]([Br])[Br] [ytterbium tribromide]
Settings | vapor or sublimation pressure
891 K | 4.7e-05 kPa
897 K | 7.9e-05 kPa and 6.3e-05 kPa
905 K | 9.3e-05 kPa and 6.3e-05 kPa
906 K | 0.000126 kPa
909 K | 0.00011 kPa
912 K | 7.9e-05 kPa
913 K | 0.00011 kPa
915 K | 0.000158 kPa
916 K | 0.000158 kPa
920 K | 0.000126 kPa
923 K | 0.000158 kPa and 0.000219 kPa
924 K | 0.000219 kPa
926 K | 0.000219 kPa
928 K | 0.000191 kPa
929 K | 0.000158 kPa
932 K | 0.000316 kPa
933 K | 0.000316 kPa
934 K | 0.000347 kPa
936 K | 0.000251 kPa and 0.000219 kPa
937 K | 0.000347 kPa
938 K | 0.000282 kPa
940 K | 0.000427 kPa
942 K | 0.000437 kPa
943 K | 0.000468 kPa
945 K | 0.000468 kPa and 0.000331 kPa
946 K | 0.000347 kPa
947 K | 0.00038 kPa
948 K | 0.000562 kPa
952 K | 0.000631 kPa
953 K | 0.000692 kPa
954 K | 0.000631 kPa
955 K | 0.000525 kPa
956 K | 0.000537 kPa and 0.000501 kPa
958 K | 0.000794 kPa
963 K | 0.000851 kPa
964 K | 0.000933 kPa
965 K | 0.000759 kPa [middle of 4 runs]
969 K | 0.001122 kPa
972 K | 0.001175 kPa
973 K | 0.000977 kPa and 0.001259 kPa
974 K | 0.000933 kPa and 0.00138 kPa
975 K | 0.000977 kPa
978 K | 0.001585 kPa
979 K | 0.001122 kPa
980 K | 0.001585 kPa
982 K | 0.001698 kPa
983 K | 0.00138 kPa
984 K | 0.001349 kPa
985 K | 0.001995 kPa
988 K | 0.002042 kPa
990 K | 0.002188 kPa
991 K | 0.001622 kPa
992 K | 0.001905 kPa
993 K | 0.00257 kPa
994 K | 0.001905 kPa
995 K | 0.002754 kPa
997 K | 0.002692 kPa
1000 K | 0.002399 kPa
1002 K | 0.002512 kPa
1003 K | 0.003631 kPa
1006 K | 0.003467 kPa
1008 K | 0.004169 kPa
1009 K | 0.003162 kPa
1012 K | 0.003388 kPa
1013 K | 0.004677 kPa
1018 K | 0.003981 kPa
1021 K | 0.004365 kPa and 0.00631 kPa
1022 K | 0.006457 kPa
1026 K | 0.005012 kPa
1032 K | 0.005754 kPa

[Cl][Lu]([Cl])[Cl] [lutetium trichloride]
Settings | vapor or sublimation pressure
942 K | 6.3e-05 kPa
945 K | 7.9e-05 kPa
946 K | 7.9e-05 kPa
953 K | 7.9e-05 kPa
955 K | 0.000126 kPa
958 K | 0.00011 kPa
959 K | 0.000126 kPa
963 K | 0.000141 kPa
968 K | 0.000158 kPa
969 K | 0.000191 kPa
970 K | 0.000158 kPa
976 K | 0.000219 kPa
978 K | 0.000251 kPa
981 K | 0.000251 kPa
982 K | 0.000316 kPa
984 K | 0.000347 kPa
991 K | 0.00038 kPa and 0.000407 kPa
992 K | 0.00038 kPa
998 K | 0.000468 kPa and 0.00055 kPa
1001 K | 0.000603 kPa
1002 K | 0.000562 kPa
1004 K | 0.000617 kPa and 0.000575 kPa
1005 K | 0.000631 kPa
1012 K | 0.000794 kPa
1013 K | 0.000912 kPa
1016 K | 0.000933 kPa
1017 K | 0.001 kPa and 0.000912 kPa
1018 K | 0.000977 kPa
1024 K | 0.00123 kPa
1029 K | 0.001445 kPa
1030 K | 0.001445 kPa
1031 K | 0.001622 kPa
1032 K | 0.001622 kPa
1033 K | 0.00166 kPa and 0.001778 kPa
1042 K | 0.002239 kPa and 0.002188 kPa and 0.002138 kPa
1046 K | 0.00263 kPa
1047 K | 0.002692 kPa
1048 K | 0.002818 kPa
1050 K | 0.002951 kPa
1051 K | 0.002951 kPa
1053 K | 0.003162 kPa
1058 K | 0.003631 kPa
1059 K | 0.003548 kPa
1060 K | 0.003715 kPa and 0.003981 kPa
1062 K | 0.00389 kPa
1066 K | 0.004467 kPa
1071 K | 0.00537 kPa and 0.004898 kPa
1075 K | 0.005495 kPa and 0.00537 kPa

[Cl][Yb]([Cl])[Cl] [ytterbium trichloride]
Settings | vapor or sublimation pressure
944 K | 0.000158 kPa
950 K | 0.000126 kPa
952 K | 0.000126 kPa
953 K | 0.000158 kPa
958 K | 0.000158 kPa and 0.000282 kPa
961 K | 0.000219 kPa
962 K | 0.000191 kPa
966 K | 0.000191 kPa and 0.000251 kPa
970 K | 0.000251 kPa
972 K | 0.000251 kPa
974 K | 0.000347 kPa and 0.000316 kPa
975 K | 0.000316 kPa and 0.000501 kPa
976 K | 0.000282 kPa
980 K | 0.00038 kPa
981 K | 0.00038 kPa
982 K | 0.000437 kPa and 0.00038 kPa
983 K | 0.000437 kPa
986 K | 0.000407 kPa
990 K | 0.000603 kPa and 0.000468 kPa and 0.000537 kPa
992 K | 0.000562 kPa
993 K | 0.000871 kPa
994 K | 0.000631 kPa
996 K | 0.000631 kPa
999 K | 0.000759 kPa and 0.000692 kPa
1000 K | 0.000794 kPa and 0.000759 kPa
1001 K | 0.000724 kPa
1005 K | 0.000851 kPa and 0.001349 kPa
1007 K | 0.001 kPa
1008 K | 0.000912 kPa
1010 K | 0.000977 kPa and 0.001 kPa
1015 K | 0.001175 kPa and 0.00123 kPa
1016 K | 0.001413 kPa
1017 K | 0.00123 kPa and 0.001905 kPa
1019 K | 0.001318 kPa
1020 K | 0.001349 kPa and 0.001549 kPa
1023 K | 0.001514 kPa
1026 K | 0.001622 kPa
1029 K | 0.001698 kPa
1030 K | 0.002884 kPa
1035 K | 0.002188 kPa
1036 K | 0.002089 kPa and 0.002344 kPa and 0.002239 kPa
1038 K | 0.002239 kPa and 0.002188 kPa
1044 K | 0.002692 kPa and 0.00302 kPa and 0.004571 kPa
1046 K | 0.002884 kPa
1048 K | 0.00302 kPa
1050 K | 0.003388 kPa
1052 K | 0.003802 kPa
1053 K | 0.003802 kPa
1054 K | 0.003981 kPa
1055 K | 0.003802 kPa and 0.006761 kPa
1057 K | 0.004074 kPa
1062 K | 0.005129 kPa and 0.005012 kPa
1063 K | 0.004677 kPa and 0.004898 kPa and 0.005012 kPa
1064 K | 0.004898 kPa
1071 K | 0.005888 kPa and 0.006761 kPa and 0.006918 kPa
1072 K | 0.00631 kPa and 0.006918 kPa and 0.006457 kPa
1079 K | 0.008318 kPa
1081 K | 0.008913 kPa and 0.00912 kPa
1082 K | 0.00871 kPa
1087 K | 0.01 kPa
1088 K | 0.01202 kPa and 0.01148 kPa
1090 K | 0.01202 kPa
1096 K | 0.01349 kPa
